Data published in patent publication US20090239748A1, “Fungicidal Mixtures Based on 2,5-Disubstituted N-Biphenylpyrazolcarboxamides” (BASF Aktiengesellschaft, priority 2005, published 2009).
One block for each compound: values may come before it.

What was measured:
[1] = system: Puccinia recondita; assay: Protective activity against Puccinia recondita on wheat (brown rust of wheat); format: in vivo
Description: (§1) The active compounds, separately or jointly, were prepared as a stock solution comprising 25 mg of active compound which was made up to 10 ml using a mixture of acetone and/or dimethyl sulfoxide and the emulsifier Uniperol® EL (wetting agent having an emulsifying and dispersing action based on ethoxylated alkylphenols) in a ratio by volume of solvent/emulsifier of 99:1. The mixture was then made up to 100 ml with water. This stock solution was diluted with the solvent/emulsifier/water mixture described to give the concentration of active compound stated below.
(§2) Alternatively, the active compounds epoxiconazole and pyraclostrobin were used as a commercial formulation and diluted with water to the stated active compound concentrations.
(§3) The visually determined percentages of infected leaf areas were converted into efficacies in % of the untreated control.
(§4) The efficacy (E) is calculated as follows using Abbot's formula: […]
α corresponds to the fungicidal infection of the treated plants in % and β corresponds to the fungicidal infection of the untreated (control) plants in %
An efficacy of 0 means that the infection level of the treated plants corresponds to that of the untreated control plants; an efficacy of 100 means that the treated plants were not infected.
(§5) The expected efficacies of active compound mixtures were determined using Colby's formula [R. S. Colby, “Calculating synergistic and antagonistic responses of herbicide combinations”, Weeds 15, 20-22 (1967)] and compared with the observed efficacies.
(§6) E=x+y−x·y/100 • E expected efficacy, expressed in % of the untreated control, when using the mixture of the active compounds A and B at the concentrations a and b; • x efficacy, expressed in % of the untreated control, when using the active compound A at the concentration a; • y efficacy, expressed in % of the untreated control, when using the active compound B at the concentration b.
Leaves of potted wheat seedlings of the cultivar “Kanzler” were sprayed to runoff point with an aqueous suspension having the active compound concentration stated below. The next day, the treated plants were inoculated with a spore suspension of brown rust of wheat (Puccinia recondita). The plants were then placed in a chamber with high atmospheric humidity (90 to 95%) at 20 to 22° C. for 24 hours. During this time, the spores germinated and the germ tubes penetrated into the leaf tissue. The next day, the test plants were returned to the greenhouse and cultivated at temperatures between 20 and 22° C. and at 65 to 70% relative atmospheric humidity for a further 7 days. The extent of the rust fungus development on the leaves was then determined visually.

[2] = system: Botrytis cinerea; assay: Activity against gray mold on bell pepper leaves caused by Botrytis cinerea, 1 day protective application; format: in vivo; conditions: sprayed 1 day before inoculation, read after 5 days
Description: as §1, §3, §4
(§7) The expected efficacies of active compound mixtures were determined using Colby's formula [R. S. Colby, “Calculating synergistic and antagonistic responses of herbicide combinations”, Weeds 15, 20-22 (1967)] and compared with the observed efficacies. […]
Bell pepper seedlings of the cultivar “Neusiedler Ideal Elite” were, after 2-3 leaves were well developed, sprayed to runoff point with an aqueous suspension having the active compound concentration stated below. […] After 5 days, the extent of the fungal infection on the leaves could be determined visually in %.

[3] = system: Phakopsora pachyrhizi; assay: Curative activity against soybean rust caused by Phakopsora pachyrhizi; format: in vivo; conditions: 0.25 mg/l, curative (sprayed 2 days after inoculation), 14 days
Description: as §1, §2, §3, §4, §7
Leaves of potted soybean seedlings of the cultivar “Oxford” were inoculated with a spore suspension of soybean rust (Phakopsora pachyrhizi). […] The extent of the rust fungus development on the leaves was then determined.

[4] = system: Septoria tritici; assay: Activity against the Septoria leaf spot pathogen Septoria tritici in the microtiter test; format: cell-based; conditions: microtiter plate, 405 nm, day 7
Description: as §5, §6
For this test, the active compounds were formulated separately as a stock solution having a concentration of 10 000 ppm in dimethyl sulfoxide.
The stock solution was mixed according to the ratio, pipetted into a microtiter plate (MTP) and diluted with an aqueous malt-based fungus nutrient medium to the stated active compound concentration. An aqueous spore suspension of Septoria tritici was then added. […] Using an absorbtion photometer, the MTPs were measured at 405 nm on day 7 after the inoculation.
The measured parameters were compared to the growth of the active compound-free control variant (100%) and the fungus- and active compound-free blank value to determine the relative growth in % of the pathogens in the individual active compounds.

[5] = system: Pyrenophora [syn. Drechslera] teres; assay: Activity against net blotch of barley caused by Pyrenophora teres, 1 day protective application; format: in vivo; conditions: 0.25 mg/l, read after 6 days
Description: as §1, with “below. […]” for “below.”
as §3, §4, §7
Leaves of potted barley seedlings were sprayed to runoff point with an aqueous suspension having the active compound concentration stated below. […] After 6 days, the extent of the development of the disease was determined visually in % infection of the entire leaf area.

SMILES: Fc1ccc([C@]2(Cn3cncn3)O[C@H]2c2ccccc2Cl)cc1 (racemic) [epoxiconazole, (2RS,3SR)-1-[3-(2-chlorophenyl)-2,3-epoxy-2-(4-fluorophenyl)propyl]-1H-1,2,4-triazole, reference compound]
Observed effect (% infection) ([1]; 0.25 mg/l): 5%

SMILES: CC1CCN(c2c(-c3c(F)cc(F)cc3F)c(Cl)nc3ncnn23)CC1 [5-chloro-7-(4-methylpiperidin-1-yl)-6-(2,4,6-trifluorophenyl)-[1,2,4]triazolo[1,5-a]-pyrimidine, reference compound]
Observed effect (% infection) ([2]; 4 mg/l): 40%

SMILES: Cn1cc(C(=O)Nc2ccccc2-c2cc(F)ccc2F)c(C(F)(F)F)n1 [No. I.1, N-(ortho-(2,5-difluorophenyl)phenyl)-1-methyl-3-trifluoromethylpyrazole-4-carboxamide]
Observed effect (% infection) ([1]; 1 mg/l): 5% | Observed effect (% infection) [3]: 29% | Observed effect (% infection) ([4]; 1 mg/l): 0% | Observed effect (% infection) ([2]; 1 mg/l): 0%

melting point: 139 to 141 °C
SMILES: Cn1cc(C(=O)Nc2ccccc2-c2cc(F)ccc2F)c(C(F)F)n1 [No. I.2, N-(2′,5′-difluorobiphenyl-2-yl)-1-methyl-3-difluoromethyl-1H-pyrazole-4-carboxamide]
Observed effect (% infection) ([1]; 1 mg/l): 52% | Observed effect (% infection) [5]: 0%

melting point: 130 to 132 °C
SMILES: Cn1cc(C(=O)Nc2ccccc2-c2cc(Cl)ccc2Cl)c(C(F)F)n1 [No. I.4, N-(2′,5′-dichlorobiphenyl-2-yl)-1-methyl-3-difluoromethyl-1H-pyrazole-4-carboxamide]

melting point: 131 to 135 °C
SMILES: Cn1cc(C(=O)Nc2ccccc2-c2cc(Cl)ccc2Cl)c(C(F)(F)F)n1 [No. I.5, N-(2′,5′-dichlorobiphenyl-2-yl)-1-methyl-3-trifluoromethyl-1H-pyrazole-4-carboxamide]

SMILES: COc1ccc(C(=CC(=O)N2CCOCC2)c2ccc(Cl)cc2)cc1OC [dimethomorph, 3-(4-chlorophenyl)-3-(3,4-dimethoxyphenyl)-1-morpholin-4-yl-propenone, reference compound]
Observed effect (% infection) ([4]; 4 mg/l): 20%

SMILES: COc1cc(C)c(C(=O)c2c(OC)ccc(Br)c2C)c(OC)c1OC [metrafenone, 3′-bromo-2,3,4,6′-tetramethoxy-2′,6-dimethylbenzophenone, reference compound]
Observed effect (% infection) ([1]; 4 mg/l): 0%

SMILES: COC(=O)N(OC)c1ccccc1COc1ccn(-c2ccc(Cl)cc2)n1 [pyraclostrobin, methyl N-{2-[1-(4-chlorophenyl)-1H-pyrazol-3-yloxymethyl]phenyl}(N-methoxy)carbamate, reference compound]
Observed effect (% infection) [5]: 33% | Observed effect (% infection) [3]: 29%
